This note sets out measurements from PMC3317655, “The Isolation and Characterization of β-Glucogallin as a Novel Aldose Reductase Inhibitor from Emblica officinalis” (PLoS ONE, 2012).

Test [1] has as its target T1, human aldose reductase (AKR1B1) (Homo sapiens, UniProt P15121). Briefly: Purified recombinant enzyme, NADPH oxidation at […] nm, saturating glucose ([…]) as substrate. Type of test: biochemical.
Test [2] concerns the target T1, human aldose reductase (AKR1B1). Briefly: Ex vivo culture of transgenic mouse lenses expressing human AKR1B1; sorbitol accumulation at […] sorbinil. Type of test: cell-based. The settings on record: read-out: % inhibition of sorbitol accumulation at 10 μM.

By IC50 is commonly meant the concentration needed to halve the response being measured. With `O=C(O[C@@H]1O[C@H](CO)[C@@H](O)[C@H](O)[C@H]1O)c1cc(O)c(O)c(O)c1` [β-glucogallin], in test [1], the IC50 came to 17 ± 1 µM.

For orientation: inhibition means the percentage by which the read-out fell short of the control. For the molecule `O=C1NC(=O)[C@@]2(CCOc3ccc(F)cc32)N1` [sorbinil], the inhibition at 10 µM in test [2] amounted to 97%.
